Data published in PMC9995496, “A screen for MeCP2-TBL1 interaction inhibitors using a luminescence-based assay” (Scientific Reports, 2023).
Structures can show the parent of a compound that is named as a salt.

These molecules were tested on PRKACA-PRKAR2A interaction (SmBiT-PRKACA / LgBiT-PRKAR2A), protein kinase A. Conditions: counter-screen for NanoLuc interference, 0.5 h, 20 µM, inhibitor, Inh (PKA).
Set-up: NanoLuc complementation counter-screen in cell extract, PRKACA with PRKAR2A, loss of luminescence, detects NanoLuc interference

| SMILES | Inh (PKA) |
| --- | --- |
| O=C(c1ccccc1)c1ccc2n1CCC2C(=O)O (stereo not drawn) [UM0142262:01, Ketorolac tromethamine salt] | -1.185% |
| NCC1(CC(=O)O)CCCCC1 [UM0142295:01, Gabapentin HCl] | 0.4431% |

Same assay, conditions: counter-screen for NanoLuc interference; 0.5 h, 20 µM; inhibitor

| SMILES | Inh (PKA) |
| --- | --- |
| CCCCN1CCCC[C@H]1C(=O)Nc1c(C)cccc1C [UM0142248:02, Levobupivacaine HCl] | 0.7845% |
| CCc1c(C(=O)NCCc2ccc(N3CCCCC3)cc2)[nH]c2ccc(Cl)cc12 [UM0142252:01, Org 27569] | 10.23% |
| CCN1/C(=C/C(C)=O)Sc2ccc(OC)cc21 [UM0142254:01, TG003] | 0.5333% |
| Cn1cc(-c2[nH]c3cc(NC(=O)[C@H](N)C4CCCCC4)cc4c3c2C=NNC4=O)cn1 [UM0142256:01, PF-477736] | 39.56% |
| Nc1nccc(Oc2ccc(NC(=O)c3c[nH]cc(-c4ccc(F)cc4)c3=O)cc2F)c1Cl [UM0142257:01, BMS-794833] | 54.88% |
| CN1CCN(C2CCN(C(=O)Nc3cc(Oc4ccc(NC(=O)C5(C(=O)Nc6ccc(F)cc6)CC5)c(F)c4)ccn3)CC2)CC1 [UM0142258:01, Golvatinib (E7050)] | 5.292% |
| CN1C(C(=O)Nc2ccccn2)=C(O)c2sc(Cl)cc2S1(=O)=O [UM0142259:01, Lornoxicam] | 33.4% |
| CCc1cccc2c3c([nH]c12)C(CC)(CC(=O)O)OCC3 (stereo not drawn) [UM0142260:01, Etodolac] | 0.3149% |
| CC(C(=O)O)c1cccc(C(=O)c2ccccc2)c1 (stereo not drawn) [UM0142261:01, Ketoprofen] | -0.4888% |
| CC1(C)Cc2c(-c3ccccc3)c(-c3ccc(Cl)cc3)c(CC(=O)O)n2C1 [UM0142263:01, Licofelone] | 28.18% |
| Cc1ccc(Nc2c(F)cccc2Cl)c(CC(=O)O)c1 [UM0142264:01, Lumiracoxib] | 7.46% |
| CC(C(=O)O)c1ccc2c(c1)CC(=O)c1ccccc1S2 (stereo not drawn) [UM0142265:01, Zaltoprofen] | 16.72% |
| COc1cc(-c2ncn(/C=C\C(=O)OC(C)C)n2)cc(C(F)(F)F)c1 [UM0142266:01, KPT-185] | 22.3% |
| O=C(/C=C\n1cnc(-c2cc(C(F)(F)F)cc(C(F)(F)F)c2)n1)N1CC(F)(F)C1 [UM0142267:01, KPT-276] | 9.545% |
| O=C1[C@@H]2[C@H]3CC[C@H](C3)[C@@H]2C(=O)N1C[C@@H]1CCCC[C@H]1CN1CCN(c2nsc3ccccc23)CC1 [UM0142271:01, Lurasidone HCl] | 12.01% |
| CCN1CCCC1CNC(=O)c1cc(S(=O)(=O)CC)c(N)cc1OC (stereo not drawn) [UM0142272:01, Amisulpride] | 0.7269% |
| CCCN[C@H]1CCc2nc(N)sc2C1 [UM0142273:01, Pramipexole] | -0.01445% |
| OCCOCCN1CCN(C2=Nc3ccccc3Sc3ccccc32)CC1 [UM0142275:01, Quetiapine Fumarate] | 6.997% |
| CCOC(=O)c1ccc(N2NC(=O)/C(=C/c3ccc([N+](=O)[O-])o3)C2=O)cc1 [UM0142276:01, PYR-41] | 36.3% |
| COc1cc2c(cc1-c1c(C)noc1C)ncc1[nH]c(=O)n([C@H](C)c3ccccn3)c12 [UM0142279:01, I-BET151 (GSK1210151A)] | 10.84% |

| SMILES | Inh (PKA) |
| --- | --- |
| C[C@]12CC[C@@H]3c4ccc(O)cc4CC[C@H]3[C@@H]1CC[C@@H]2OC(=O)CCC1CCCC1 [UM0142280:01, Estradiol Cypionate] | 4.433% |
| C=CC[C@]1(O)CC[C@H]2[C@@H]3CCC4=CC(=O)CCC4=C3C=C[C@@]21C [UM0142281:01, Altrenogest] | 7.202% |
| CCCCC(=O)O[C@H]1CC[C@H]2[C@@H]3CCc4cc(O)ccc4[C@H]3CC[C@]12C [UM0142282:01, Estradiol valerate] | 9.885% |
| CC[C@H](c1ccc(O)cc1)[C@@H](CC)c1ccc(O)cc1 [UM0142283:01, Hexestrol] | 49.6% |
| CC(=O)O[C@]1(C(C)=O)CC[C@H]2[C@@H]3C[C@H](C)C4=CC(=O)CC[C@]4(C)[C@H]3CC[C@@]21C [UM0142284:01, Medroxyprogesterone acetate] | 6.658% |
| CC(=O)[C@H]1CC[C@H]2[C@@H]3CC=C4C[C@@H](O)CC[C@]4(C)[C@H]3CC[C@]12C [UM0142285:01, Pregnenolone] | 6.585% |
| C[C@]12CCC3=C4CCC(=O)C=C4CC[C@H]3[C@@H]1CC[C@@]2(O)CC#N [UM0142287:01, Dienogest] | -0.135% |
| C#C[C@]1(O)C=C[C@H]2[C@@H]3CCC4=CC(=O)CC[C@@H]4[C@H]3CC[C@@]21CC [UM0142288:01, Gestodene] | 7.119% |
| CS(=O)(=O)c1cccc(CNc2nc(Nc3ccc4c(c3)CCC(=O)N4)ncc2C(F)(F)F)c1 [UM0142290:01, PF-573228] | 25.03% |
| COc1c(C)c(C(=O)c2ccc(N)c(C(=O)O)c2)n2ccccc12 [UM0142292:01, SSR128129E] | 31.08% |
| CC(C)c1onc(-c2c(Cl)cccc2Cl)c1COc1ccc(/C=C/c2cccc(C(=O)O)c2)c(Cl)c1 [UM0142293:01, GW4064] | 30.87% |
| COc1ccnc2[nH]cc(C(=O)C(=O)N3CCN(C(=O)c4ccccc4)C[C@H]3C)c12 [UM0142297:01, BMS-378806] | 0.2509% |
| N#Cc1ccc2[nH]c(O)c(-c3ccc(CN4CCOCC4)cn3)c2c1 [UM0142298:01, AZD1080] | 15.47% |
| CC(C)(C)c1ccc(CN2CCN(C(c3ccccc3)c3ccc(Cl)cc3)CC2)cc1 (stereo not drawn) [UM0142302:01, Buclizine HCl] | 2.001% |
| CN/C(=N\CCSCc1nc[nH]c1C)NC#N [UM0142305:01, Cimetidine] | 1.548% |
| Cc1ccc2c(c1)c1c(n2CCc2ccc(C)nc2)CCN(C)C1 [UM0142307:01, Latrepirdine] | 3.431% |
| CN(C)CC/C=C1/c2ccccc2COc2ccc(CC(=O)O)cc21 [UM0142309:01, Olopatadine HCl] | -1.243% |
| CCC(CC)(NC(=O)C(C)C)C(=O)N[C@@H](CCCN=C(N)N)C(=O)NC1(C(=O)NC(c2ccc(F)cc2)c2ccc(F)cc2)CCCC1 [UM0142313:01, MM-102] | 12.23% |
| O=C(c1ccc(Nc2nccc(-c3cc4ccccc4s3)n2)cc1)N1CCC(N2CCCC2)CC1 [UM0142314:01, IKK-16 (IKK Inhibitor VII)] | 16.61% |
| O=C(Nc1cc(C(F)(F)F)cc(C(F)(F)F)c1)c1cc(Cl)ccc1O [UM0142315:01, IMD 0354] | 90.14% |

| SMILES | Inh (PKA) |
| --- | --- |
| C1=N/C2=N/c3ccc(OCCN4CCCC4)c(c3)COC/C=C/COCc3cccc(c3)C(=C1)N2 [UM0142316:01, Pacritinib (SB1518)] | 30.05% |
| Cc1ccc(C(=O)N(CCCN)[C@@H](c2oc3cc(Cl)ccc3c(=O)c2Cc2ccccc2)C(C)C)cc1 [UM0142317:01, SB743921] | 14.68% |
| Nc1nc(N)nc(-c2cc(Cl)ccc2Cl)n1 [UM0142318:01, Irsogladine] | 5.104% |
| C[N+](C)(C)CCOC(=O)CCC(=O)OCC[N+](C)(C)C [UM0142319:01, Succinylcholine Chloride Dihydrate] | -1.734% |
| O=C(O[C@H]1C[N+]2(CCCOc3ccccc3)CCC1CC2)C(O)(c1cccs1)c1cccs1 [UM0142325:01, Aclidinium Bromide] | 1.77% |
| C[N+]1(C)[C@@H]2C[C@@H](OC(=O)[C@H](CO)c3ccccc3)C[C@H]1[C@@H]1O[C@@H]12 [UM0142326:01, Methscopolamine] | 1.249% |
| COc1cc(OC)c(NC(=O)Nc2cc(C)on2)cc1Cl [UM0142328:01, PNU-120596] | 15.14% |
| Cn1c(=O)c(F)c(Nc2ccc(I)cc2F)c2c(=O)n(C[C@@H](O)CO)cnc21 [UM0142329:01, TAK-733] | 15.12% |
| Cc1cc(Nc2ccc(NC(=O)c3ccc(Nc4ccnc5ccccc45)cc3)cc2)nc(N)n1 [UM0142330:01, SGI-1027] | 9.462% |
| c1cncc(CN2CCC(n3ncc4c(N5CCOCC5)nc(-c5ccc6[nH]ccc6c5)nc43)CC2)c1 [UM0142335:01, WAY-600] | 7.744% |
| CNC(=O)Nc1ccc(-c2nc(N3CC4CCC(C3)O4)c3cnn(C4CCC5(CC4)OCCO5)c3n2)cc1 [UM0142336:01, WYE-125132 (WYE-132)] | 31.62% |
| Cc1ccc(NCCCc2ccccc2)c(N)c1 [UM0142338:01, JSH-23] | 14.43% |
| Nc1c(CC(=O)O)cccc1C(=O)c1ccccc1 [UM0142341:01, Amfenac Sodium Monohydrate] | 3.127% |
| Nc1c(CC(=O)O)cccc1C(=O)c1ccc(Br)cc1 [UM0142342:01, Bromfenac Sodium] | 5.05% |
| CC(C(=O)O)c1ccc2c(c1)[nH]c1ccc(Cl)cc12 (stereo not drawn) [UM0142344:01, Carprofen] | 82.74% |
| CO/N=C(\C(=O)N[C@@H]1C(=O)N2C(C(=O)O)=C(CSc3nc(=O)c(O)nn3C)CS[C@H]12)c1csc(N)n1 [UM0142345:01, Ceftriaxone Sodium Trihydrate] | 3.455% |
| Cc1c(O)c(=O)ccn1C [UM0142352:01, Deferiprone] | 0.006466% |
| CN(C)CCOC(C)(c1ccccc1)c1ccccn1 (stereo not drawn) [UM0142354:01, Doxylamine Succinate] | 1.104% |
